Source: patent US4732984A, “Piperazinoisothiazolones with psychotropic activity” (priority 1986, dated 1988)
Structures can show the parent of a compound that is named as a salt.

Tests used:
[1] = Conditioned avoidance (shelf-jump response) test; format: in vivo, Male CD rats; settings: Rattus norvegicus, ip, rats, read-out: AB50 (standard compounds)
Excerpt: Another test designed to determine the potential antipsychotic activity of the compounds of the invention is the conditioned avoidance (shelf-jump response) test.
Male CD rats (Charles River) maintained at approximately 400-450 gm body weight are used. […] A moveable wall, controlled by a motor, determines whether the rat has access to the shelf at any time during the experiment. The experimental chamber also contains a house light and sonalert. A steel grid floor in the main chamber is wired for presentation of electric shock. Each trial consists of a fifteen-second warning tone (conditioned stimulus), continuing for an additional fifteen seconds accompanied by electric shock (unconditioned stimulus). A response (jumping onto the exposed shelf of the upper chamber) occurring during the initial fifteen-second warning tone is considered an avoidance response, while a response occurring during shock delivery is considered an escape response. Trials are presented on a fixed interval schedule of one minute. The session consists of thirty-six trials. […]
The following experimental parameters are recorded by computer: (1) the number of avoidance responses, (2) the number of escape responses, and (3) the number of trials in which no response occurred.
Response counts are summed over all subjects at a given dose. […] This number is expressed as a percentage of the total trials. […]

[2] = Conditioned avoidance (discrete trial) test; format: in vivo, Male CD rats; settings: for ED50: Rattus norvegicus; for Activity at 40 mg/kg: 40 mg/kg perorally administered
Description: The antipsychotic activity of the compounds of the invention is assessed via the conditioned avoidance (discrete trial) test. This test has excellent clinical correlation for antipsychotic activity.
Male CD rats (Charles River) maintained at approximately 400-450 gm body weight are used. Rats trained previously are placed in plexiglass experimental chambers equipped with a response lever, house light, and sonalert. A steel grid floor is wired for presentation of electric shock. Each trial consists of a fifteen-second warning tone (conditioned stimulus), continuing for an additional fifteen seconds accompanied by electric shock, (unconditioned stimulus). The rat can terminate a trial at any point by depression of the response lever. A response during the initial fifteen-second warning tone ends the trial before shock delivery and is considered an avoidance response, while a response occurring during shock delivery is an escape response. Trials are presented on a variable interval schedule of two minutes. The session consists of sixty trials. Animals are run two to three times weekly with control sessions always preceding a drug run, and with at least one day intervening, compounds are administered i.p. or p.o. at appropriate pre-treatment times to a minimum of five to six rats at each dose level over a range of doses.
The following experimental parameters are recorded by computer: (1) the number of intertrial interval responses, (2) the number of avoidance responses, (3) the number of escape responses, and (4) the number of trials in which no response occurred.
Response counts are summed over all subjects at a given dose. […] This number is expressed as a percentage of the total trials. Control performance is arbitrarily assigned a value of 100% for avoidance and the dose calculated to produce a 50% block in avoidance responding (AB50 ) is obtained from a dose-effect regression line fitted by the method of least squares. Potential antipsychotic compounds suppress avoidance responding and increase escape responding.

[3] = test system: dopamine receptor; settings: mice; 10 mg/kg s.c. apomorphine
[4] = biological target: limbic D-2 dopamine receptor (Rattus norvegicus, UniProt P61169); experiment: biochemical; format: binding, rats; settings: for Ki: rat limbic tissue, 0.3 nM 3H-spiroperidol, 37° C., 10 min, read-out: Limbic D-2 Binding (Ki nM)
Chain of limbic D-2 dopamine receptor (P61169 whole entry): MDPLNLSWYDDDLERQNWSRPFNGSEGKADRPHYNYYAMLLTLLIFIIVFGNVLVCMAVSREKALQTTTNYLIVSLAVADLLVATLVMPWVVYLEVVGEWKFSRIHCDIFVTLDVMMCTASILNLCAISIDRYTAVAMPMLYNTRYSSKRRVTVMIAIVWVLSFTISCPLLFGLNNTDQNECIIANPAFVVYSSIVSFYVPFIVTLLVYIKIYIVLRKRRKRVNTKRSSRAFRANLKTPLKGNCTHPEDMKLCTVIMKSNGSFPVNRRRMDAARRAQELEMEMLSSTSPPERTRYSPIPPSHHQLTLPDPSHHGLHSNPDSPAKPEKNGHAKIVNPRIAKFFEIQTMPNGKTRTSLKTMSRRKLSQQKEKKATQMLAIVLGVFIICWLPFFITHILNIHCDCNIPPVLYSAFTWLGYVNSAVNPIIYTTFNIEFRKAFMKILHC
Description: The compounds of the invention are further studied for their ability to inhibit limbic D-2 dopamine receptor binding. This in vitro assay measures the ability of the compounds tested to bind to the dopamine receptor sites.
Several rats are decapitated and the brains are rapidly removed. Limbic brain tissue (nucleus accumbens, septal area, olfactory tubercle) is dissected and homogenized on ice in 9 volumes of buffer (50 mM Tris-HCl, 120 mM NaCl, 5 mM KCl, 1 mM CaCl2, 1 mM MgCl2, 0.1% L-ascorbic acid, 10 μM pargyline HCl, pH 7.1) using a Polytron homogenizer at setting 5 for three 15-sec bursts. The homogenate is then diluted 4-fold with buffer and centrifuged at 30,000×g for 20 min, and the supernatant is discarded. The pellet is resuspended in the same volume of buffer and recentrifuged as before, again discarding the supernatant. This pellet is then resuspended in the same volume of buffer used in the homogenization, and the protein content of this preparation is assyed by the Lowry method. The homogenate is stored frozen at -70° C. until use.
Thirty μL of the homogenate (0.02-0.3 mg protein/sample) are incubated with 0.3 nM ^3 H-spiroperidol (New England Nuclear) and various concentrations of test drug in a final volume of 1 ml of the above buffer for 10 min in a 37° C. water bath. At the end of the incubation, 3 ml of cold 50 mM Tris-HCl, pH 7.7, are added to each tube, and the contents are rapidly vacuum-filtered through Whatman GF/B glass-fiber filters. The filters are then rapidly washed 3 times with 3 ml of the same buffer, placed in scintillation vials, and shaken for 15 min with 10 ml of Hydrofluor (National Diagnostics) scintillation cocktail. The vials are then counted in a Packard 460CD scintillation counter.
Specific binding is defined as total binding less binding in the presence of 1 μM (+)butaclamol. Binding in the presence of various concentrations of test drug is expressed as a per cent of specific binding when no drug is present.

[5] = po, perorally administered, discrete trial, rats, read-out: AB50 (the source's name)

Ki [4] [nM]	SMILES	ED50 [2, 5] [mg/kg]	Activity at 40 mg/kg [2]	further results
	O=C1CC2(CCCC2)CC(=O)N1CCCCN1CCN(c2ncccn2)CC1 [Buspirone, 8-[4-[4-(2-pyrimidinyl)-1-piperazinyl]butyl]-8-azaspiro[4.5]decane-7,9-dione]	32		ED50 [1]: 9.44 mg/kg; Activity in apomorphine-induced stereotyped behavior assay [3]: inactive
1410	O=C1C2C3C=CC(C4CC34)C2S(=O)(=O)N1CCCCN1CCN(c2ncccn2)CC1 (stereo not drawn) [Example 6, 4,4a,5,5a,6,6a-hexahydro-2-[4-[4-(2-pyrimidinyl)-1-piperazinyl]butyl]-4,6-etheno-2H-cyclopropa[f][1,2]benzisothiazol-3(3aH)-one 1,1-dioxide,dihydrochloride]			
	Cl.Cl.O=C1C2C3C=CC(C3)C2S(=O)(=O)N1CCCCN1CCN(c2cncc(Cl)n2)CC1 (stereo not drawn) [Example 14, 2-[4-[4-(6-Chloro-2-pyrazinyl)-1-piperazinyl]butyl]-3a,4,7,7a-tetrahydro-4,7-methano-1,2-benzisothiazol-3(2H)-one 1,1-dioxide, dihydrochloride]	78.2		
	Cl.O=C1C2C3CCC(C3)C2S(=O)(=O)N1CCCCN1CCN(c2cncc(Cl)n2)CC1 (stereo not drawn) [Example 16, 2-[4-[4-(6-Chloro-2-pyrazinyl)-1-piperazinyl]butyl]-3a,4,5,6,7,7a-hexahydro-4,7-methano-1,2-benzisothiazol-3(2H)-one 1,1-dioxide, hydrochloride]		showed activity	
	O=C(CCCN1CCC2(CC1)C(=O)NCN2c1ccccc1)c1ccc(F)cc1 [Spiperone, reference compound]			ED50 ([2]; ip, discrete trial, rats, read-out: AB50 (standard compounds)): 0.13 mg/kg
	O=C1[C@@H]2[C@@H]([C@H]3CC[C@@H]2O3)S(=O)(=O)N1CCCCN1CCN(c2cncc(Cl)n2)CC1 (relative stereo) [Example 8, 3aα,4β,7β,7aα-hexahydro-2-[4-[4-(6-chloro-2-pyrazinyl)-1-piperazinyl]butyl]-4,7-epoxy-1,2-benzisothiazol-3(2H)-one 1,1-dioxide, hydrochloride]	34.3		inhibition at 10 µM ([4]; read-out: Limbic D-2 Binding, % inhibition at 10 μM): 36%
493	O=C1c2ccccc2S(=O)(=O)N1CCCCN1CCN(c2nccnc2Cl)CC1 [Example 11, 2-[4-[4-(3-Chloro-2-pyrazinyl)-piperazinyl]butyl]-1,2-benzisothiazol-3(2H)-one 1,1-dioxide, hydrochloride]			
	O=C1C2C3CCC(C3)C2S(=O)(=O)N1CCCCN1CCN(c2ncccn2)CC1 (stereo not drawn) [Example 15, 2-[4-[4-(2-Pyrimidinyl)-1-piperazinyl]butyl]-3a,4,5,6,7,7a-hexahydro-4,7-methano-1,2-benzisothiazol-3(2H)-one 1,1-dioxide, dihydrochloride, hemihydrate]		showed activity	
1100	O=C1C2C3C=CC(C3)C2S(=O)(=O)N1CCCCN1CCN(c2ncccn2)CC1 (stereo not drawn) [Example 1, 3a,4,7,7a-Tetrahydro-2-[4-[4-(2-pyrimidinyl)-1-piperazinyl]butyl]-4,7-methano-1,2-benzisothiazol-3(2H)-one 1,1-dioxide, dihydrochloride, hemihydrate]	45.4		
	O=C1C2C3CCC(C4CC43)C2S(=O)(=O)N1CCCCN1CCN(c2ncccn2)CC1 (stereo not drawn) [Example 17, Hexahydro-2-[4-[4-(2-pyrimidinyl)-1-piperazinyl]butyl-4,6-ethano-2H-cycloprop[f]-1,2-benzisothiazol-3(2H)-one 1,1-dioxide, hydrochloride]		showed activity	
	O=C1[C@@H]2[C@@H]([C@@H]3CC[C@H]2O3)S(=O)(=O)N1CCCCN1CCN(c2cncc(Cl)n2)CC1 (relative stereo) [Example 20, (3aα,4α,7α,7aα)-2-[4-[4-(6-Chloro-2-pyrazinyl)-1-piperazinyl]butyl]hexahydro-4,7-epoxy-1,2-benzisothiazol-3(2H)-one 1,1-dioxide, hydrochloride]		showed activity	
1030	O=C1C2C3C=CC(C4CC34)C2S(=O)(=O)N1CCCCN1CCN(c2cncc(Cl)n2)CC1 (stereo not drawn) [Example 18, 2-[4-[4-(6-Chloro-2-pyrazinyl)-1-piperazinyl]butyl]-4,4a,5,5a,6,6a-hexahydro-4,6-etheno-2H-cycloprop[f]-1,2-benzisothiazol-3(2H)-one 1,1-dioxide, hydrochloride]		showed activity	
	O=C1C2C3C=CC(C4C=CC43)C2S(=O)(=O)N1CCCCN1CCN(c2ncccn2)CC1 (stereo not drawn) [Example 21, 3a,4,4a,6a,7,7a-Hexahydro-2-[4-[4-(2-pyrimidinyl)-1-piperazinyl]butyl]-4,7-ethenocyclobut[f]-1,2-benzisothiazol-3(2H)-one 1,1-dioxide, dihydrochloride]	39.4	showed activity	
	CC1=C(C)CC2C(C1)C(=O)N(CCCCN1CCN(c3ncccn3)CC1)S2(=O)=O (stereo not drawn) [Example 3, 3a,4,7,7a-Tetrahydro-5,6-dimethyl-2-[4-[4-(2-pyrimidinyl)-1-piperazinyl]butyl]-1,2-benzisothiazol-3(2H)-one 1,1-dioxide dihydrochloride]			inhibition at 1 µM ([4]; read-out: Limbic D-2 Binding, % inhibition at 1 μM): 21%
507	CC1=C(C)CC2C(C1)C(=O)N(CCCCN1CCN(c3nccnc3Cl)CC1)S2(=O)=O (stereo not drawn) [Example 13, 2-[4-[4-(3-Chloro-2-pyrazinyl)-1-piperazinyl]butyl]-3a,4,7,7a-tetrahydro-5,6-dimethyl-1,2-benzisothiazol-3(2H)-one 1,1-dioxide, hydrochloride, hydrate]			
	O=C1[C@H]2[C@H]([C@@H]3CC[C@H]2O3)S(=O)(=O)N1CCCCN1CCN(c2cnccn2)CC1 (relative stereo) [Example 19, (3aα,4β,7β,7aα)-Hexahydro-2-[4-[4-(2-pyrazinyl)-1-piperazinyl]butyl]-4,7-epoxy-1,2-benzisothiazol-3(2H)-one 1,1-dioxide, dihydrochloride, hemihydrate]	47.9		
	O=C(CCCN1CCC(O)(c2ccc(Cl)cc2)CC1)c1ccc(F)cc1 [Haloperidol, reference compound]			AB50 (standard compounds) ([2]; i.p., discrete trial, rats): 0.18 mg/kg i.p.

SMILES	Ki [4] [nM]	ED50 [2, 5] [mg/kg]	Activity at 40 mg/kg [2]	further results
O=C1C2C3C=CC(CC3)C2S(=O)(=O)N1CCCCN1CCN(c2ncccn2)CC1 (stereo not drawn) [Example 2, 3a,3,7,7a-Tetrahydro-2-[4-[4-(2-pyrimidinyl)-1-piperazinyl]butyl]-4,7-ethano-1,2-benzisothiazol-3(2H)-one 1,1-dioxide, dihydrochloride, hydrate]	2000			
